Earlier results in patent publication US20160193276A1 (Teva Pharmaceutical Industries, Ltd., priority 2012, published 2016).

Assays:
[1] = tested on: patients with relapsing multiple sclerosis; settings: administered orally
MS patients = settings: 20 mg/day subcutaneous (s.c.)
rats = settings: orally administered
mice = settings: orally administered

L-glutamic acid polymer with L-alanine, L-lysine, L-tyrosine, acetate (salt) [glatiramer acetate]
Relapse rate or other clinical MRI parameters of disease activity [1]: did not affect | Total number of enhancing lesions as measured by MRI (MS patients): reduce | Induction of EAE (rats): inhibited | Induction of EAE (mice): inhibited
